# In patent US6521620B1, “Bicyclic compounds capable of inhibiting tyrosine kinases of the epidermal growth factor receptor family” (Warner-Lambert Company, priority 1994, dated 2003):
# Structures can show the parent of a compound that is named as a salt. Where two headings read alike, the source gives them in different places.
# Legend:
# EGF receptor = target: T1, EGF receptor (Homo sapiens, UniProt P00533); assay: Inhibition of EGF-induced autophosphorylation in A431 epidermoid carcinoma cells; type: cell-based
# T1 construct: EGF receptor autophosphorylation in A431 human epidermoid carcinoma; endogenous in cells; host or cells: A431 human epidermoid carcinoma cells (ATCC)
# T1 sequence (P00533 25-1210): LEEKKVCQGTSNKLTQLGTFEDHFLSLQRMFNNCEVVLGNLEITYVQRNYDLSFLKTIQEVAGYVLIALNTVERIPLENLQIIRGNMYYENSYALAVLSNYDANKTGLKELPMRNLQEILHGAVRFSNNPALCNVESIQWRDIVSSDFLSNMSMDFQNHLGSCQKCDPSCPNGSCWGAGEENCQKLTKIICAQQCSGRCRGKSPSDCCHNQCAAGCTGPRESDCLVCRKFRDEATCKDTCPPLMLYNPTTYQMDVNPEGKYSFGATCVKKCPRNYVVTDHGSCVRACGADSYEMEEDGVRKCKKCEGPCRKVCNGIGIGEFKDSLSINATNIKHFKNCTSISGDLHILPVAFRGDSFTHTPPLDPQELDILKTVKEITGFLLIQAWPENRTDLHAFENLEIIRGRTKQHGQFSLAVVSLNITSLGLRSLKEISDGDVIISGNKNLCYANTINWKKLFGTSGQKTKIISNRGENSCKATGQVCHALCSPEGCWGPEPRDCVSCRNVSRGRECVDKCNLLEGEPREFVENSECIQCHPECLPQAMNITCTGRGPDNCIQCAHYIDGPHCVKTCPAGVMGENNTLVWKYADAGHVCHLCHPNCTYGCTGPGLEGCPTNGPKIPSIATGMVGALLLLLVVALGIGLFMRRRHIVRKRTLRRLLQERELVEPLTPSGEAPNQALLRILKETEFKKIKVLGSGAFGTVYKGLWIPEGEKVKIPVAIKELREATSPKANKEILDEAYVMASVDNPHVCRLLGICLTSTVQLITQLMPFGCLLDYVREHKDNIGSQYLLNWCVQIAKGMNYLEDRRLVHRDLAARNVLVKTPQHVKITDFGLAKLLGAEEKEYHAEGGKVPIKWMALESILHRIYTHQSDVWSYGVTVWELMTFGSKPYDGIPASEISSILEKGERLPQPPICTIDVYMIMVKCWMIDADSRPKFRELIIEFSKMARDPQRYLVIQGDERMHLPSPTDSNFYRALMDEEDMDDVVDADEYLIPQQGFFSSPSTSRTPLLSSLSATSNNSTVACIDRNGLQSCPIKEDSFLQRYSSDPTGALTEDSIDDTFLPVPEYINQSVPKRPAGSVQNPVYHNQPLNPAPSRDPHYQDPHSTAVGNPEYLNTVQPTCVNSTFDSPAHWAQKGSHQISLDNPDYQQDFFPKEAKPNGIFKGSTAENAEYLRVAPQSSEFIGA
# Method: (§1) Cells were grown to 100% confluency in 100 mm Petrie dishes (Corning). After the cells were treated for 5 minutes with either EGF (epidermal growth factor), PDGF, or bFGF (basic fibroblast growth factor) (20 ng/ml) or 1 ml of conditioned media from MDA-MB-231 cells, the media was removed and the monolayer scraped into 1 ml of ice cold lysis buffer (50 mM Hepes, pH 7.5, 150 mM NaCl, 10% glycerol, 1% triton X-100, 1 mM EDTA, 1 mM EGTA, 10 mM sodium pyrophosphate, 30 mM p-nitrophenyl phosphate, 1 mM orthovanadate, 50 mM sodium fluoride, 1 mM phenylmethylsulfonylfluoride, 10 μg/ml of aprotinin, and 10 μg/ml of leupeptin). The lysate was transferred to a microfuge tube (small centrifuge that holds 1-2 ml plastic centrifuge tubes), allowed to sit on ice 15 minutes and centrifuged 5 minutes at 10,000×g. The supernatant was transferred to a clean microfuge tube and 5 μg of antibody was added to designated samples. The tubes were rotated for 2 hours at […] after which 25 μl of protein A sepharose was added and then rotation continued for at least 2 more hours. The protein A separose was washed 5 times with 50 mM Hepes, pH 7.5, 150 mM NaCl, 10% glycerol and 0.02% sodium azide. […] The extract were transferred to a microfuge tube and heated to 100° C. for 5 minutes. […] Proteins in the gel were electrophoretically transferred to nitrocellulose and the membrane was washed once in 10 mM Tris buffer, pH 7.2, 150 mM NaCl, 0.01% Azide (TNA) and blocked overnight in TNA containing 5% bovine serum albumin and 1% ovalbumin (blocking buffer). The membrane was blotted for 2 hours with the primary antibody (1 μg/ml in blocking buffer) and then washed 2 times sequentially in TNA, TNA containing 0.05% Tween-20 and 0.05% Nonidet P-40 (commercially available detergent) and TNA.
# [1] = target: T2, Human EGF receptor tyrosine kinase (Homo sapiens, UniProt P00533); assay: EGF receptor tyrosine kinase inhibition (phosphorylation of PLC-gamma 1 derived peptide); type: biochemical
# T2 construct: isolated from A431 human epidermoid carcinoma cells which overexpress EGF receptor; endogenous in cells; host or cells: A431 human epidermoid carcinoma cells; purified from the lysate on wheat germ agglutinin sepharose
# T2 sequence (P00533 25-1210): as above
# Method: Purification of Epidermal Growth Factor Receptor Tyrosine Kinase—Human EGF receptor tyrosine kinase was isolated from A431 human epidermoid carcinoma cells which overexpress EGF receptor by the following methods. Cells were grown in roller bottles in 50% Delbuco's Modified Eagle and 50% HAM F-12 nutrient media (Gibco) containing 10% fetal calf serum. Approximately 10^9 cells were lysed in two volumes of buffer containing 20 mM 2-(4N-[2-hydroxyethyl]piperazin-1-yl)ethanesulfonic acid (hepes), pH 7.4, 5 mM ethylene glycol bis(2-aminoethyl ether) N,N,N′,N′-tetraacetic acid, 1% Triton X-100, 10% glycerol, 0.1 mM sodium orthovanadate, 5 mM sodium fluoride, 4 mM pyrophosphate, 4 mM benzamide, 1 mM dithiothreitol, 80 μg/mL aprotinin, 40 μg/mL leupeptin and 1 mM phenylmethylsulfonyl fluoride. After centrifugation at 25,000×g for 10 minutes, the supernatant was equilibrated for 2 h at 4° C. with 10 mL of wheat germ agglutinin sepharose that was previously equilibrated with 50 mM Hepes, […], 0.1% Triton X-100 and 150 mM NaCl, pH 7.5, (equilibration buffer). Contaminating proteins were washed from the resin with 1 M NaCl in equilibration buffer, and the enzyme was eluted with 0.5 M N-acetyl-1-D-glucosamine in equilibration buffer, followed by 1 mM urea. The enzyme was eluted with 0.1 mg/ml EGF.
# The reaction was terminated by the addition of 2 mL of […] phosphoric acid and passed through a 2.5 cm phosphocellulose filter disc to bind the peptide. The filter was washed five times with 75 mM phosphoric acid and placed in a vial along with 5 mL of scintillation fluid (Ready gel Beckman).
# erbB-2, 3, 4 = assay: Inhibition of conditioned media-induced autophosphorylation in SK-BR-3 breast tumor cells; type: cell-based, human
# Method: as §1
# [2] = system: B104-1-1 - NIH-3T3 fibroblasts transfected by the neu oncogene; assay: Growth inhibition assay (antiproliferative), B104-1-1; type: cell-based; settings: Mus musculus; B104-1-1 cells
# [3] = system: MDA-468 - Human breast carcinoma overexpressing the EGF receptor; assay: cells; settings: read-out: Antiproliferative IC50 (nM)
# Method: To obtain conditioned medium, MDA-MB-231 cells were grown to confluency in an 850 cm^2 roller bottle and the medium-replaced with 50 ml of serum-free medium. After 3 days the conditioned medium was removed, frozen down in aliquots and used as a heregulin source to stimulate erbB-2, 3, 4.
# Cells (2×10^4) were seeded in 24-well plates (1.7×1.6 cm, flat bottom) in two mls of medium with or without various concentrations of drug. Plates were incubated for 3 days at 37° in a humidified atmosphere containing 5% CO2 in air. Cell growth was determined by cell count with a Coulter Model AM electronic cell counter (Coulter Electronics, Inc., Hialeah, Fla.).
# [4] = system: SK-BR-3 - Human breast carcinoma overexpressing erbB-2 and erbB-3; assay: Growth inhibition assay (antiproliferative), SK-BR-3; type: cell-based; settings: SK-BR-3 cells
# [5] = Table 1, values in nM, read-out: EGF Receptor Tyrosine Kinase Inhibition IC50
# [6] = enzyme value repeated in the autophosphorylation table, read-out: EGFR IC50
# [7] = SK-BR-3 cells, read-out: SKBR-3 IC50
# [8] = Table 1, values printed in μM, read-out: EGF Receptor Tyrosine Kinase Inhibition IC50
# [9] = Table 1, values in pM, read-out: EGF Receptor Tyrosine Kinase Inhibition IC50
Compound,IC50 (EGF receptor) [nM],"IC50 [1, 5] [nM]","IC50 [1, 6] [nM]","IC50 (erbB-2, 3, 4; [7]) [nM]",also measured
"Fc1ccc2ncnc(Nc3cccc(Br)c3)c2n1 [Example 4, 4-(3-Bromoanilino)-6-fluoropyrido[3,2-d]pyrimidine]",> 1000,225,225,> 10000,–
"Nc1ccc2ncnc(Nc3cccc(Br)c3)c2n1 [Example 6, 4-(3-Bromoanilino)-6-aminopyrido[3,2-d]pyrimidine]",53,7.6,7.6,2660,–
"CNc1ccc2ncnc(Nc3cccc(Br)c3)c2n1 [Example 7, 4-(3-Bromoanilino)-6-methylaminopyrido[3,2-d]pyrimidine]",20,3.1,3.1,100,–
"CN(C)c1ccc2ncnc(Nc3cccc(Br)c3)c2n1 [Example 8, 4-(3-Bromoanilino)-6-dimethylaminopyrido[3,2-d]pyrimidine]",32,9.6,9.6,71,–
"Nc1cc2ncnc(Nc3cccc([N+](=O)[O-])c3)c2cn1 [Example 22, 7-Amino-4-(3-nitroanilino)pyrido[4,3-d]pyrimidine]",252,39,39,~1500,–
"Nc1cc2ncnc(Nc3ccccc3C(F)(F)F)c2cn1 [Example 30, 7-Amino-4-(2-trifluoromethylanilino)pyrido[4,3-d]pyrimidine]",–,–,–,–,"IC50 [1, 8]: 10000 nM; melting point: 126 to 130 °C (dec.)"
"COc1cc2c(Nc3cccc(Br)c3)ncnc2cn1 [Example 59, 4-(3-Bromoanilino)-6-methoxypyrido[3,4-d]pyrimidine]",12,2.6,2.6,< 10,–
"CNc1cc2c(Nc3cccc(Br)c3)ncnc2cn1 [Example 60, 4-(3-Bromoanilino)-6-methylaminopyrido[3,4-d]pyrimidine]",13,–,0.008,< 10,"IC50 [1, 9]: 0.008 nM; IC50 [2]: 2100 nM; IC50 [3]: 3000 nM; IC50 [4]: 600 nM"
"CN(C)c1cc2c(Nc3cccc(Br)c3)ncnc2cn1 [Example 61, 4-(3-Bromoanilino)-6-dimethylaminopyrido[3,4-d]pyrimidine]",21,–,0.006,–,"IC50 [1, 9]: 0.006 nM; IC50 [2]: 1000 nM; IC50 (erbB-2, 3, 4; read-out: SKBR-3 IC50 nM, SK-BR-3 cells): 39 nM; IC50 [3]: 12000 nM; IC50 [4]: 900 nM"
"COc1ccc2c(Nc3cccc(Br)c3)ncnc2n1 [Example 68, 4-(3-Bromoanilino)-7-methoxypyrido[2,3-d]pyrimidine]",–,263,–,–,–
"CNc1ncc2c(NCc3ccccc3)ncnc2n1 [Example 69, 4-Benzylamino-7-methylaminopyrimido[4,5-d]pyrimidine]",–,–,–,–,"IC50 [1, 8]: 7000 nM"
"Brc1cccc(Nc2ncnc3ccsc23)c1 [Example 71, 4-(3-Bromoanilino)thieno[3,2-d]pyrimidine Hydrochloride]",–,–,–,–,IC50 [1]: 11 nM
"Brc1cccc(Nc2ncnc3sccc23)c1 [Example 73, 4-(3-Bromoanilino)thieno[2,3-d]pyrimidine]",–,–,–,–,IC50 [1]: 36 nM
"c1ccc(CNc2ncnc3nc[nH]c23)cc1 [Example 76, N^6-Benzyladenine]",–,–,–,–,"IC50 [1, 8]: 10000 nM"
"COc1ccc(Nc2ncnc3cc(N)ncc23)cc1 [Example 78, 7-Amino-4-(4-methoxyanilino)pyrido[4,3-d]pyrimidine]",–,670,–,–,–
"Brc1cccc(Nc2ncnc3cnc(N4CCCCC4)cc23)c1 [Example 79, 4-(3-Bromoanilino)-6-(piperidin-1-yl)pyrido[3,4-d]pyrimidine]",–,6.7,–,–,–

# Further lines, with some results ahead:
IC50 (EGF receptor) [nM],"IC50 [1, 5] [nM]","IC50 [1, 6] [nM]","IC50 (erbB-2, 3, 4; [7]) [nM]",Compound,also measured
–,590,–,–,"C[C@@H](Nc1ncnc2ccncc12)c1ccccc1 [Example 39, 4-([R]-1-Phenylethylamino)pyrido[4,3-d]pyrimidine]",melting point: 138 to 138.5 °C
–,220,–,–,"C[C@@H](Nc1ncnc2cc(N)ncc12)c1ccccc1 [Example 41, 7-Amino-4-([R]-1-phenylethylamino)pyrido[4,3-d]pyrimidine]",melting point: 231.8 to 232.1 °C
–,473,11,< 10,"NNc1ncc2c(NCc3ccccc3)ncnc2n1 [Example 70, 4-Benzylamino-7-hydrazinopyrimido[4,5-d]pyrimidine]",–
–,35,–,–,"c1ccc(CNc2ncnc3ccsc23)cc1 [Example 72, 4-Benzylaminothieno[3,2-d]pyrimidine]",–
–,–,55,> 1000,"c1ccc(CNc2nc[nH]c3nccc2-3)cc1 [Example 74, 4-Benzylaminopyrrolo[2,3-d]pyrimidine]","IC50 [1, 8]: 11500 nM"
–,55,–,–,"Brc1cccc(Nc2ncnc3[nH]cnc23)c1 [Example 75, N^6-(3-Bromophenyl)adenine]",–
